Measured values published in US20080267862A1, “METHOD OF TREATING CANCER” (priority 2007, published 2008).

Legend:
[1] = test system: squamous cell carcinomatous tumor; assay: histopathology (HPE) of neo-angiogenesis 96 hrs after Injection LMH in a patient; type: in vivo, human; details: LMH 4 g/day I.V. for 4 days, HPE after 96 hrs
Source text: (§1) Recurrences were confirmed with biopsy and HP examination. Subsequently, the patient was given 2 cycles of Palliative Chemotherapy, following Injection LMH (Lysine Monohydrochloride) for 4 days (4 g/day I.V. in divided doses), with Cisplatin and 5 FU.
HPE was done 96 hrs after Injection LMH to confirm the neo-angiogenesis (FIGS. 4 & FIGS. 5 & FIGS. 6-9)(Also compare FIGS. 4 to 9 with FIGS. 10-11 for quantitative comparison of angiogenic response in LMH treated squamous cell carcinomatous tumor vs. control tumours).

[2] = test system: recurrence lymph node masses; assay: clinical response of recurrent lymph node masses in a patient followed by palliative chemotherapy; type: in vivo, human; details: one patient; LMH 4 g/day I.V. for 4 days, then 2 cycles of palliative chemotherapy with Cisplatin and 5 FU
Source text: […] They underwent Radical surgery in the form of total excision of primary tumors and bilateral Supra-omohyoid Neck dissection. Adjuvant External Beam Radiotherapy (EBRT) was then given 66 Gy/33 Fr 6½ weeks and the patient went into complete remission and was disease free for >9 months.
Subsequently, the patient had multiple nodal recurrences presenting with palpable masses.
as §1

cells in culture = assay: cellular expansion / rapid cellular growth in culture in-vitro; type: cell-based; details: FIG. 3
Source text: (§2) Lysine induced repair process depends on the ability of the amino acid/derivative(s) to induce rapid and controlled cellular expansion, both in-vitro and in-vivo. The phenomenon is probably based on the ability of the molecule(s) to act as the cell surface concentrator(s) of circulating growth factor(s). The rapid angiogenic property of the molecule(s) is also entirely dependent on the same phenomenon, where angiogenic factors are concentrated, locally, on the endothelial cell surface receptors, mediated by the molecule(s) working, possibly, as molecular bridges.

expanding cells in-vivo = assay: expanding cells in-vivo
Source text: The present invention is based on an improvement over the inventor's earlier discovery that lysine, without the presence of any other angiogenic factor(s)/angiogenic growth factor(s)/vasculogenic/granulation tissue inducing agent(s), is capable of inducing angiogenesis in ischaemic tissues. The inventor's initial inquiries were directed towards finding new chemical additives in a high-density-culture system, in-vitro, where the objective was to expand viable hybridoma cell mass to the maximum possible at the least possible time (lag phase minimization) and maintaining the viable cell mass in culture for the maximum possible time period, in both fed-batch as well as batch cultures. The final goal was to get highest possible yields of monoclonal antibody (Mab) in the said high-density culture. […] Because of its ability to expand cells in-vitro, the cationic amino acid was taken, along with its d-isomer and short oligomer (m.w. up to or around 500-2500) to in-vivo experimentation and clinical conditions, for controlled regeneration of cells (in clinical conditions), where in-situ regeneration of cells was centrally important along with angio-neogenesis/vasculogensis.

[3] = induction of angiogenesis in-vivo; details: for effectiveness, on their own, in inducing angiogenesis response: each on its own
Source text: as §2

hybridoma cell mass = details: high-density hybridoma culture, fed-batch and batch; Datta, D et al. 1997; cited from earlier work

| Compound | angiogenic response in glandular structure (histopathology) ([1]; FIG. 4) | angiogenic response in tumor tissue (histopathology) ([1]; FIGS. 5-9, versus control FIGS. 10-11) | outcome of recurrence lymph node masses [2] | cellular expansion in culture (cells in culture; about 10 mcg/ml of added load, in addition to the usual load of l-lysine in the media) | effectiveness in expanding cells / inducing rapid cellular growth in-vitro, compared to l-lysine (cells in culture; in-vitro) | effectiveness in expanding cells in-vivo, compared to the l-variety (expanding cells in-vivo) | effectiveness, on their own, in inducing angiogenesis response [3] | effectiveness in inducing angiogenesis in-vivo, compared to l-lysine ([3]; in-vivo) | expansion of biomass (cell population) compared to other physico-chemical means (hybridoma cell mass) |
| --- | --- | --- | --- | --- | --- | --- | --- | --- | --- |
| Cl.NCCCC[C@H](N)C(=O)O [LMH, Lysine Monohydrochloride] | extensive angiogenic response | huge angiogenic and massive blood channel formation | disappeared achieving a 2nd complete recovery | – | – | – | – | – | – |
| NCCCC[C@@H](N)C(=O)O [d-lysine] | – | – | – | mediated cellular expansion in culture | equally effective | equally effective | equally effective | equally effective | – |
| NCCCC[C@H](N)C(=O)O [l-lysine] | – | – | – | – | – | – | equally effective | – | expand the biomass (cell population) at the least possible time |
